Tests used:
SARS-CoV-2 replicon = experiment: microbe, parasite or virus in culture; assay type: cell-based; details: Severe acute respiratory syndrome coronavirus 2, Huh-7
[1] = target: SARS-CoV-2 Papain-like (PLpro) protease (Severe acute respiratory syndrome coronavirus 2, UniProt P0DTD1); experiment: SARS-CoV-2 Papain-like (PLpro) protease biochemical enzyme inhibition assay (ubiquitin-fluorophore substrate, Ub-R110); details: Ub-R110 substrate; run in duplicate; read-out: PLpro IC50

Compound	EC50 (SARS-CoV-2 replicon) [nM]	IC50 [1] [nM]
N#CCNC(=O)C(=O)NCc1ccccc1C(=O)NC1(c2cc(-c3cnn(CC(F)F)c3)cc3ccccc23)CC1 [Example 286]	< 1000	< 100
COc1cc(C2(NC(=O)c3ccccc3CNC(=O)C(=O)N[C@@H](C)C#Cc3nccs3)CC2)cc2cn(C3CC3)nc12 [Example 336]	< 1000	< 100
C[C@@H](NC(=O)c1ccccc1CNC(=O)C(=O)NCC#N)c1cc(-c2cccs2)cc(C(F)(F)F)c1 [Example 460]	< 1000	< 100
N#CCNC(=O)C(=O)NCc1ccccc1C(=O)NC1(c2cc(C#N)cc(-c3cccs3)c2)CC1 [Example 127]	1000 to 10000	< 100
N#Cc1cccc(C#CCNC(=O)C(=O)NCc2ccccc2C(=O)NC2(c3ccc4ccccc4c3)CC2)n1 [Example 193]	< 1000	< 100
N#CCNC(=O)C(=O)NCc1ccccc1C(=O)NC1(c2cc(-c3cnn(C4CC4)c3)cc3ncccc23)CC1 [Example 415]	1000 to 10000	< 100
O=C(NCC#Cc1ccc(F)cn1)C(=O)NCc1ccccc1C(=O)NC1(c2cc(-c3cnn(C4CC4)c3)cc(C3CC3)c2)CC1 [Example 135]	< 1000	< 100
N#CCNC(=O)C(=O)NCc1ccccc1C(=O)NC1(c2cc(Cl)cc(-c3cncs3)c2)CC1 [Example 448]	1000 to 10000	< 100
Cn1cc2cc(C3(NC(=O)c4ccccc4CNC(=O)C(=O)NCC#Cc4ncccc4OCC(F)F)CC3)ccc2n1 [Example 211]	< 1000	< 100
O=C(NCC#Cc1cc(F)ccn1)C(=O)NCc1ccccc1C(=O)NC1(c2ccc3ccccc3c2)CC1 [Example 187]	< 1000	< 100
N#CCNC(=O)C(=O)NCc1ccccc1C(=O)NC1(c2cccc3ccccc23)CC1 [Example 25]	< 1000	< 100
N#CCNC(=O)C(=O)NCc1ccccc1C(=O)NC1(c2cc(F)c(F)c(-c3cccs3)c2)CC1 [Example 239]	> 10000	< 100
O=C(NC/C=C1\CCOC1=O)C(=O)NCc1ccccc1C(=O)NC1(c2cc(Br)cc3ccccc23)CC1 [Example 151]	< 1000	< 100
N#Cc1cccc(NC(=O)/C=C/CNC(=O)C(=O)NCc2ccccc2C(=O)NC2(c3cccc4ccccc34)CC2)c1 [Example 574]	1000 to 10000	100 to 1000
O=C(/C=C/CNC(=O)C(=O)NCc1ccccc1C(=O)NC1(c2cccc3ccccc23)CC1)NCC(F)(F)F [Example 572]	> 10000	100 to 1000
COc1cc(-c2cnn(C3CC3)c2)cc(C2(NC(=O)c3ccccc3CNC(=O)C(=O)NCC#Cc3nccs3)CC2)c1 [Example 246]	< 1000	< 100
N#CCNC(=O)C(=O)NCc1ccccc1C(=O)NC1(c2cc(-c3cccs3)cc(Cl)c2F)CC1 [Example 304]	1000 to 10000	< 100
N#CCNC(=O)C(=O)NCc1ccccc1C(=O)NC1(c2cccc3c(C#N)cccc23)CC1 [Example 308]	< 1000	< 100
CONC(=O)/C=C/CNC(=O)C(=O)NCc1ccccc1C(=O)NC1(c2cccc3ccccc23)CC1 [Example 560]	1000 to 10000	100 to 1000
C#CCNC(=O)C(=O)NCc1ccccc1C(=O)NC1(c2ccc(F)c(-c3cnn(C4CC4)c3)c2)CC1 [Example 225]	< 1000	< 100

Compound	EC50 (SARS-CoV-2 replicon) [nM]	IC50 [1] [nM]
Cc1nn(C)cc1-c1cc(C2(NC(=O)c3ccccc3CNC(=O)C(=O)NCC#N)CC2)ccc1F [Example 236]	> 10000	100 to 1000
CS(=O)(=O)/C=C/CNC(=O)C(=O)NCc1ccccc1C(=O)NC1(c2cccc3ccccc23)CC1 [Example 155]	< 1000	< 100
C[C@@H](C#Cc1ncccc1Cl)NC(=O)C(=O)NCc1ccccc1C(=O)NC1(c2ccc3nn(C)cc3c2)CC1 [Example 272]	< 1000	< 100
CS(=O)(=O)/C=C/CNC(=O)C(=O)NCc1ccccc1C(=O)NC1(c2ccc3ccccc3c2)CC1 [Example 161]	< 1000	< 100
CN1CC(COc2ccc(CNC(=O)C(=O)NCC#N)c(C(=O)NC3(c4cccc5ccccc45)CC3)c2)C1 [Example 326]	1000 to 10000	< 100
C#CCNC(=O)C(=O)NCc1ccccc1C(=O)NC1(c2cc(F)cc(-c3cn(C)nc3C)c2)CC1 [Example 234]	< 1000	< 100
COc1cccnc1C#CCNC(=O)C(=O)NCc1ccccc1C(=O)NC1(c2ccc3nn(C)cc3c2)CC1 [Example 270]	< 1000	< 100
C[C@@H](C#Cc1nccs1)NC(=O)C(=O)NCc1ccccc1C(=O)NC1(c2ccc3nn(C)cc3c2)CC1 [Example 184]	< 1000	< 100
N#CCNC(=O)C(=O)NCc1ccccc1C(=O)NC1(c2ccc3c4c(cccc24)CC3)CC1 [Example 439]	< 1000	< 100
C[C@@H](C#Cc1ncccc1OCC(F)F)NC(=O)C(=O)NCc1ccccc1C(=O)NC1(c2ccc3nn(C)cc3c2)CC1 [Example 212]	1000 to 10000	100 to 1000
C[C@@H](C#Cc1ccccc1C#N)NC(=O)C(=O)NCc1ccccc1C(=O)NC1(c2ccc3nn(C)cc3c2)CC1 [Example 99]	< 1000	< 100
COC(=O)C#CCCNC(=O)C(=O)NCc1ccccc1C(=O)N[C@H](C)c1cccc2ccccc12 [Example 8]	< 1000	< 100
N#CCNC(=O)C(=O)NCc1ccc(C(=O)N2CC(F)(F)C2)cc1C(=O)NC1(c2ccc(F)c3ccccc23)CC1 [Example 62]	1000 to 10000	< 100
O=C(NCC#Cc1nccs1)C(=O)NCc1ccccc1C(=O)NC1(c2cc(F)cc(-c3ccn(C(F)F)n3)c2)CC1 [Example 136]	< 1000	< 100
N#Cc1ccccc1C#CCNC(=O)C(=O)NCc1ccccc1C(=O)NC1(c2ccc3ccccc3c2)CC1 [Example 94]	< 1000	< 100
CN1CCC1COc1ccc(CNC(=O)C(=O)NCC#N)c(C(=O)NC2(c3cccc4ccccc34)CC2)c1 (stereo not shown) [Example 331]	< 1000	< 100
N#CN1CC(CNC(=O)C(=O)NCc2ccccc2C(=O)NC2(c3cc(F)cc(-c4cnn(C5CC5)c4)c3)CC2)C1 [Example 431]	1000 to 10000	100 to 1000
CN(C(=O)c1cc(Cl)cc(C2(NC(=O)c3ccccc3CNC(=O)C(=O)NCC#Cc3nccs3)CC2)c1)c1ccc(F)cc1 [Example 79]	< 1000	< 100
Cn1cc2cc(C3(NC(=O)c4ccccc4CNC(=O)C(=O)NCC#Cc4nccs4)CC3)ccc2n1 [Example 337]	< 1000	< 100
C[C@@H](NC(=O)c1ccccc1CNC(=O)C(=O)NCC#N)c1cc(-c2ccoc2)cc(C(F)(F)F)c1 [Example 464]	1000 to 10000	< 100

Compound	EC50 (SARS-CoV-2 replicon) [nM]	IC50 [1] [nM]
C#CCNC(=O)C(=O)NCc1ccc(C(=O)N2CC(F)(F)C2)cc1C(=O)NC1(c2ccc(F)c3ccccc23)CC1 [Example 61]	< 1000	< 100
C[C@@H](NC(=O)c1c(F)cccc1CNC(=O)C(=O)NCC#N)c1cccc2ccccc12 [Example 29]	1000 to 10000	< 100
N#CN1CCC(C(=O)NCc2ccccc2C(=O)NC2(c3cccc4ccccc34)CC2)C1 (stereo not shown) [Example 115]	< 1000	< 100
C#Cc1cc(C(F)(F)F)cc(C2(NC(=O)c3ccccc3CNC(=O)C(=O)NCC#N)CC2)c1 [Example 70]	< 1000	100 to 1000
CC[C@@H](C#Cc1nccs1)NC(=O)C(=O)NCc1ccccc1C(=O)NC1(c2ccc3nn(C)cc3c2)CC1 [Example 146]	< 1000	< 100
C#CCNC(=O)C(=O)NCc1ccccc1C(=O)NC1(c2cccc(-c3cnn(C4CC4)c3)c2Cl)CC1 [Example 381]	< 1000	< 100
O=C(NCC#Cc1ccc(F)cn1)C(=O)NCc1ccccc1C(=O)NC1(c2ccc3ccccc3c2)CC1 [Example 192]	< 1000	< 100
C#CCNC(=O)C(=O)NCc1ccccc1C(=O)NC1(c2cc(Cl)cc(-c3cn(C)nc3C)c2)CC1 [Example 485]	< 1000	< 100
C#CCNC(=O)C(=O)NCc1ccccc1C(=O)NC1(c2cc(F)cc(-c3cccs3)c2)CC1 [Example 224]	< 1000	< 100
C#CCNC(=O)C(=O)NCc1ccccc1C(=O)NC1(c2cc(-c3cnn(C4CC4)c3)cc(C(F)(F)F)c2)CC1 [Example 471]	< 1000	< 100
Cn1cc2cc(C3(NC(=O)c4ccccc4CNC(=O)C(=O)NCC4CN(C#N)C4)CC3)ccc2n1 [Example 432]	1000 to 10000	100 to 1000
C#CCNC(=O)C(=O)NCc1ccccc1C(=O)NC1(c2cc(F)cc(-c3cnn(C4CC4)c3)c2)CC1 [Example 226]	< 1000	< 100
C#CCNC(=O)C(=O)NCc1ccccc1C(=O)NC1(c2ccc(F)c(-c3cccs3)c2)CC1 [Example 223]	< 1000	< 100
COc1cc(C#N)ccc1C#CCNC(=O)C(=O)NCc1ccccc1C(=O)NC1(c2ccc3ccccc3c2)CC1 [Example 88]	< 1000	< 100
CN(C)CCn1cc(-c2cc(F)cc(C3(NC(=O)c4ccccc4CNC(=O)C(=O)NCC#Cc4nccs4)CC3)c2)cn1 [Example 251]	< 1000	< 100
O=C(NCC#Cc1nccs1)C(=O)NCc1ccccc1C(=O)NC1(c2ccc3nc(C4CC4)ccc3c2)CC1 [Example 396]	< 1000	< 100
CN1CCC(n2cc(-c3cc(F)cc(C4(NC(=O)c5ccccc5CNC(=O)C(=O)NCC#Cc5ncco5)CC4)c3)cn2)CC1 [Example 257]	< 1000	< 100
C#CCNC(=O)C(=O)NCc1ccccc1C(=O)NC1(c2cc(Cl)cc(-c3ccccc3F)c2)CC1 [Example 444]	< 1000	< 100
C#CCNC(=O)C(=O)NCc1ccccc1C(=O)NC1(c2cc(Cl)cc(C(=O)N(C)c3ccc(F)cc3)c2)CC1 [Example 77]	1000 to 10000	< 100

From patent US20240327334A1, “Covalent Inhibitors As Antiviral Agents” (Enanta Pharmaceuticals, Inc., priority 2022, published 2024)
